From US5795907A, “Gastin and CCK receptor ligands” (James Black Foundation Limited, priority 1994, dated 1998)

What was measured:
[1] = biological target: T1, CCKB receptor (Mus musculus, UniProt P56481); assay: CCKB receptor radioligand binding assay in mouse cortical membranes ([125I]-CCK8S); conditions: [125I]-CCK8S 200 pM, 150 min at 21±3°; for Ki: read-out: CCKB pKi (converted)
T1 construct: The cortex was dissected, weighed and homogenised in 40ml ice-cold buffer; tissue Charles River (supplier of the CD1 mice); host or cells: cerebral cortex membranes of male CD1 mice
T1 sequence (P56481 1-453): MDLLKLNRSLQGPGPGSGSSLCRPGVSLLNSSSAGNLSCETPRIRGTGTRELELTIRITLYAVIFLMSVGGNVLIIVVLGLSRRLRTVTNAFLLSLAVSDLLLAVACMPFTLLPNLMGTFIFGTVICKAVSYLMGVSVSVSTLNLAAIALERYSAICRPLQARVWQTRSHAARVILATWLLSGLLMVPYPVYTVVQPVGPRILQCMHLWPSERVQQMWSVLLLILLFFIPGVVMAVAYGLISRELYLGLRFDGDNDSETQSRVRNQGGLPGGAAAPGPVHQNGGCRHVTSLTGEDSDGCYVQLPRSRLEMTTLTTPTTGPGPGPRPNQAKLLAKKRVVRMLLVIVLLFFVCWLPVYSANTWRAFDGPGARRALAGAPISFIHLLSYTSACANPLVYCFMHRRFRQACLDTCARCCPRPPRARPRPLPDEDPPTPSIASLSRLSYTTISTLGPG
In short: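 This was competition binding with tracer [125I]-CCK8S (200 pM solution added), run for 150 min at 21±3° on male CD1 mouse cortex membranes in pH 7.2 HEPES buffer with bacitracin. Filtration then gamma counting gave bound radioactivity. L-365,260 set the non-specific level.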

[2] = biological target: T2, CCKA (Cavia porcellus, UniProt Q63931); assay: CCKA radioligand binding assay in guinea-pig pancreas membranes ([125I]-CCK8(S)); conditions: PD134,308 present, 150 minutes at 21±3°; for Ki: read-out: CCKA pKi (converted)
T2 construct: The pancreatata were homogenised in 40 ml ice-cold HEPES buffer using a polytron; from tissue; host or cells: pancreas membranes of male Dunkin Hartley guinea-pigs
T2 sequence (Q63931 1-430): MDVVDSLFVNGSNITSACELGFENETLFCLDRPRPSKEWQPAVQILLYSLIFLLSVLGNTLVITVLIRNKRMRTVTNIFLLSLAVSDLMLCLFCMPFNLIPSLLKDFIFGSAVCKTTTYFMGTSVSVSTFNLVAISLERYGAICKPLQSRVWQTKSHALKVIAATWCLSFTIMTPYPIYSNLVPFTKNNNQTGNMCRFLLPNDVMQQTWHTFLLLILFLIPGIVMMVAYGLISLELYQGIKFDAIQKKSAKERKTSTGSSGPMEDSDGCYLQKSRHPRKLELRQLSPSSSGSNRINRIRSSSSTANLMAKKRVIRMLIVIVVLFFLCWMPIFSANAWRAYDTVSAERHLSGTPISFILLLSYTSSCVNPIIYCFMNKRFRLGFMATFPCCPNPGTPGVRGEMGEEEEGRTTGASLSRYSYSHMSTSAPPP
In short: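 Competition for [125I]-CCK8(S) (added as […] solution) ran for 150 min at 21±3° in HEPES pH 7.2. Membranes came from male guinea-pig pancreas at 1 mg/ml original wet weight, with 0.375 μM PD134,308 in the suspension. Filter-bound counts were gamma-counted; 100 nM L-364,718 (added solution) defined non-specific binding.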

[3] = biological target: T3, gastrin (Rattus norvegicus, UniProt P30553); assay: gastrin antagonist activity in an immature rat stomach assay (pentagastrin-stimulated acid secretion); conditions: cumulative pentagastrin dose-response curves after 60 min with drug; for Kb: read-out: Gastrin pKB (converted)
T3 construct: The stomach was lowered into a jacketed organ bath containing 40 ml of buffered solution; from tissue; host or cells: isolated perfused whole stomach of immature rats (ca. 21 days old)
T3 sequence (P30553 1-452): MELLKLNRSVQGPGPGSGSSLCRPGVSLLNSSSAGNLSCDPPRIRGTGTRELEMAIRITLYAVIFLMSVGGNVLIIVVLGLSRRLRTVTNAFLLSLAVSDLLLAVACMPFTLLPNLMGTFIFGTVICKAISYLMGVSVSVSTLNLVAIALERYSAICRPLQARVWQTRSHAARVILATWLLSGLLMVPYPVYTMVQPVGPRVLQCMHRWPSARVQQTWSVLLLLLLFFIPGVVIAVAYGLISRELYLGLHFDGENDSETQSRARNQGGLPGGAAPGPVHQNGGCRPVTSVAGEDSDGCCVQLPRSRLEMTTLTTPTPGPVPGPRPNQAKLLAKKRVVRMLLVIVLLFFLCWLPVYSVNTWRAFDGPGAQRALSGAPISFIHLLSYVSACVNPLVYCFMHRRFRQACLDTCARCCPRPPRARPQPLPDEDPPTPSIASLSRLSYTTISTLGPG
In short: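 Isolated lumen-perfused immature rat stomach (33-50 g, ca. 21 days) in 37° organ bath with 3×10^-8 M 5-methylfurmethide; acid secretion read by pH electrode in perfusate. Compound added to serosal bath after 120 min stabilisation; cumulative pentagastrin dose-response curves begun 60 min later and analysed by the Black et al. method.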

Molecule | CCKB pKi [1] | CCKA pKi [2] | Gastrin pKB [3] | Ki [1] | Ki [2] | Kb [3]
COC(=O)c1cc(NC(=O)[C@H](Cc2ccccc2)NC(=O)c2cc3ccoc3cc2C(=O)NCC23CC4CC(CC(C4)C2)C3)cc(C(=O)OC)c1 [Example 124, 5-(1S-(3,5-dimethoxycarbonylphenylaminocarbonyl)-2-phenylethylaminocarbonyl)-6-(1-adamantanemethylaminocarbonyl)-benzofuran] | 6.5 | 5.7 | 6.8 |  |  | 
O=C(O)c1cc(NC(=O)[C@H](Cc2ccccc2)NC(=O)C2Cc3ccccc3CN2C(=O)NCC23CC4CC(CC(C4)C2)C3)cc(C(=O)O)c1 (stereo partly drawn) [Example 57, 3-(1S-(3,5-dicarboxyphenylaminocarbonyl)-2-phenylethylaminocarbonyl)-2-(1-adamantanemethylaminocarbonyl)-1,2,3,4-tetrahydroisoquinoline] |  |  |  | 20 nM | 2000 nM | 20 nM
5-(1S-(3,5-dicarboxyphenylaminocarbonyl)-2-phenylethylaminocarbonyl)-6-(2,2-dimethylpropylaminocarbonyl)-indole and regioisomer with substituents at positions 5 and 6 reversed [Example 46] | 6.7 | 5.1 | 7.1 |  |  | 
O=C(O)c1ccc(C(=O)O)c(NC(=O)[C@H](Cc2ccccc2)NC(=O)c2cc3[nH]cnc3cc2C(=O)NCC23CC4CC(CC(C4)C2)C3)c1 [Example 78, 5-(1S-(2,5-dicarboxyphenylaminocarbonyl)-2-phenylethylaminocarbonyl)-6-(1-adamantanemethylaminocarbonyl)-benzimidazole] | 7.3 | 5.3 | 8.6 |  |  | 
O=C(NCC12CC3CC(CC(C3)C1)C2)c1cc2[nH]ccc2cc1C(=O)N[C@@H](Cc1ccccc1)C(=O)Nc1cccc(-c2nn[nH]n2)c1 [Example 100, 5-(1S-(3-tetrazolylphenylaminocarbonyl)-2-phenylethylaminocarbonyl)-6-(1-adamantanemethylaminocarbonyl)-indole] |  |  |  | 12.6 nM | 398 nM | 31.6 nM
O=C(NCC12CC3CC(CC(C3)C1)C2)c1cc2nc[nH]c2cc1C(=O)N[C@@H](Cc1ccccc1)C(=O)NCc1ccc(F)cc1 [Example 67, 5-(1S-(4-fluorophenylmethylaminocarbonyl)-2-phenylethylaminocarbonyl)-6-(1-adamantanemethylaminocarbonyl)-benzimidazole] |  |  |  | 501 nM | 2000 nM | 158 nM
5-(1S-(3,5-dicarboxyphenylaminocarbonyl)-2-(3-fluorophenyl)ethylaminocarbonyl)-6-(1-adamantanemethylaminocarbonyl)-indole and regioisomer with substituents at positions 5 and 6 reversed [Example 28] | 8.5 | 5.4 | 9.7 |  |  | 
O=C(O)c1cc(NC(=O)[C@H](Cc2cccc(F)c2)NC(=O)c2cc3[nH]cnc3cc2C(=O)NCC23CC4CC(CC(C4)C2)C3)cc(C(=O)O)c1 [Example 131, 5-(1S-(3,5-dicarboxyphenylaminocarbonyl)-2-(3-fluorophenyl)ethylaminocarbonyl)-6-(1-adamantanemethylaminocarbonyl)-benzimidazole] |  |  |  | 3.98 nM | 5010 nM | 0.2 nM
3-(1S-(3,5-dicarboxyphenylaminocarbonyl)-2-phenylethylaminocarbonyl)-2-(1-adamantanemethylaminocarbonyl)-5-nitronaphthalene and its regioisomer with groups at positions 2 and 3 reversed [Example 55] | 8.2 | 5.8 | 8.3 |  |  | 
O=C(O)c1cc2ccccc2cc1C(=O)NCC12CC3CC(CC(C3)C1)C2 [Example 1, 3-(1-adamantanemethylaminocarbonyl)-2-naphthoic acid] |  |  |  | 3160 nM | 7940 nM | 1580 nM
O=C(O)c1cc(NC(=O)[C@H](Cc2ccc(I)cc2)NC(=O)c2cc3[nH]cnc3cc2C(=O)NCC23CC4CC(CC(C4)C2)C3)cc(C(=O)O)c1 [Example 134, 5-(1S-(3,5-dicarboxyphenylaminocarbonyl)-2-(4-iodophenyl)ethylaminocarbonyl)-6-(1-adamantanemethylaminocarbonyl)-benzimidazole] |  |  |  | 25.1 nM | 794 nM | 1.58 nM
O=C(O)c1cc(NC(=O)[C@H](Cc2ccccc2)NC(=O)c2cc3cc[nH]c3cc2C(=O)NCC2CN3CCC2CC3)cc(C(=O)O)c1 (stereo partly drawn) [Example 108, 5-(1S-(3,5-dicarboxyphenylaminocarbonyl)-2-phenylethylaminocarbonyl)-6-(1-azabicyclo[2.2.2]oct-3-ylmethylaminocarbonyl)-indole] |  |  |  | 1260 nM | > 10000 nM | 794 nM
COC(=O)[C@H](C)NC(=O)c1cc2ccccc2cc1C(=O)NCC12CC3CC(CC(C3)C1)C2 [Example 2, 2-(1S-methoxycarbonyl-ethylaminocarbonyl)-3-(1-adamantanemethylaminocarbonyl)-naphthalene] |  |  |  | 3160 nM | 12600 nM | 1000 nM
5-(1S-(3,5-dicarboxyphenylaminocarbonyl)-ethylaminocarbonyl)-6-(cycloheptanemethylaminocarbonyl)-indole and regioisomer with substituents at positions 5 and 6 reversed [Example 58] | 6.5 | 5.0 | 7.5 |  |  | 
O=C(NCC12CC3CC(CC(C3)C1)C2)c1cc2cc[nH]c2cc1C(=O)N[C@@H](Cc1ccccc1)C(=O)Nc1cc(-c2nn[nH]n2)cc(-c2nn[nH]n2)c1 [Example 105, 6-(1S-(3,5-ditetrazolylphenylaminocarbonyl)-2-phenylethylaminocarbonyl)-5-(1-adamantanemethylaminocarbonyl)-indole] |  |  |  | 5.01 nM | 158 nM | 3.16 nM
O=C(O)c1cc(NC(=O)[C@H](Cc2ccccc2F)NC(=O)c2cc3[nH]cnc3cc2C(=O)NCC2CCCCCC2)cc(C(=O)O)c1 [Example 70, 5-(1S-(3,5-dicarboxyphenylaminocarbonyl)-2-(2-fluorophenyl)ethylaminocarbonyl)-6-(cycloheptanemethylaminocarbonyl)-benzimidazole] |  |  |  | 7.94 nM | 7940 nM | 15.8 nM
O=C(O)c1cccc(NC(=O)[C@H](Cc2ccccc2)NC(=O)c2cc3cc[nH]c3cc2C(=O)NCC23CC4CC(CC(C4)C2)C3)c1 [Example 90, 5-(1S-(3-carboxyphenylaminocarbonyl)-2-phenylethylaminocarbonyl)-6-(1-adamantanemethylaminocarbonyl)-indole] | 8.2 | 5.3 | 8.0 |  |  | 
